Calls of active or inactive are those of the source. A value given as a limit tells only on which side of the number the result lay.

Assay [1] has as its target Sphingosine 1-phosphate receptor 2 (Homo sapiens, UniProt O95136). In words: Dose Response Cell Based Assay for Agonists of the S1P2 Receptor of Purchased Analogues. [Related pubchem assays: 729, 843, 854, 736 ]. The format is functional.
For assay [2], the target named is Cytochrome P450 2C19 (Homo sapiens, UniProt P33261). Briefly: qHTS Assay for Inhibitors and Substrates of Cytochrome P450 2C19. [Related pubchem assays: 410 ]. Particulars: read-out: Potency. Format: ADME. A general note: Quantitative high-throughput screening tests each substance at several concentrations.
Assay [3] addresses NADPH oxidase 1 (Homo sapiens, UniProt Q9Y5S8). The format is functional, cell-based.
The target of assay [4] is T1, Bcl-2-related protein A1 (Mus musculus, UniProt Q07440).
T1 sequence (Q07440 whole entry): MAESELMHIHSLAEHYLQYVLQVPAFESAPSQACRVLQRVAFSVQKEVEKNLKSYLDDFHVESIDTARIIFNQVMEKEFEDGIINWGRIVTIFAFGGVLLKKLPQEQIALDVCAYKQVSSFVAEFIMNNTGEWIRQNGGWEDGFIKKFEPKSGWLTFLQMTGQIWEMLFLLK
In words: displacement of Bid BH3 peptide from Bfl-1 – biochemical, fluorescence polarization, FITC-Bid, mouse, primary screen (AID 432). In general terms: Fluorescence polarisation rises when a labelled molecule tumbles more slowly, as on binding a larger partner.

The target of assay [5] is T1, Bcl-2-related protein A1. Briefly: small-molecule antagonists of Bfl-1/BH3 interaction – biochemical, TR-FRET, mouse Bfl-1, confirmation (AID 621).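 Note: TR-FRET binding of GST-Bfl-1 to FITC-labelled Bid peptide via terbium antibody.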
Assay [6] has as its target Aryl hydrocarbon receptor (Homo sapiens, UniProt P35869). In words: Luminescence-based cell-based high throughput dose response assay for activators of the Aryl Hydrocarbon Receptor (AHR). [Related pubchem assays: 2796 (Primary screen (AHR activators in singlicate)), 2845 (Confirmation screen (AHR activators in triplicate)), 434939 (Counterscreen (PXR activators in triplicate)), 2804 (Summary (AHR activators))]. The format is ADME. (In general: Counterscreens check selectivity or assay interference.)

In assay [7] the target is Serine/threonine-protein phosphatase PP1-alpha catalytic subunit (Homo sapiens, UniProt P62136). Briefly: inhibition of protein phosphatase 1 activity – biochemical, fluorescence, dose response (AID 2394).
Serine/threonine-protein phosphatase PP1-alpha catalytic subunit, sequence (P62136 whole entry): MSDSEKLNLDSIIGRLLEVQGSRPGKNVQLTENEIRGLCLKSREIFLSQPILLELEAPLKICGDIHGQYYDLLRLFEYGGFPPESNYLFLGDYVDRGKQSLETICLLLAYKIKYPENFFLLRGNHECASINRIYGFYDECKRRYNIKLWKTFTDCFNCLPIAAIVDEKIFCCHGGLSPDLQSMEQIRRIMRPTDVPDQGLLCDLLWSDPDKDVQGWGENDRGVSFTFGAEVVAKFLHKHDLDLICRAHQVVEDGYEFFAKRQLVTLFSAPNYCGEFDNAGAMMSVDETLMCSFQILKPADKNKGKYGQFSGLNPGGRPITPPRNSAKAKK
Assay [8] addresses T2, SUMO-activating enzyme (Homo sapiens, UniProt Q9UBT2). In words: blockers of UBC9-mediated SUMO conjugation – biochemical, AlphaScreen, SUMOylation inhibitor project, confirmation (AID 2018). The format is functional.
Assay [9] addresses T2, SUMO-activating enzyme. Briefly: blockers of SAE1/SAE2–UBC9 SUMO transfer – biochemical, HTRF, uHTS, primary screen (AID 2006). The format is protein-complex assay.
Assay [10] addresses T3, Serine/threonine-protein phosphatase (Homo sapiens, UniProt Q9BPW0).
T3 sequence (Q9BPW0 whole entry): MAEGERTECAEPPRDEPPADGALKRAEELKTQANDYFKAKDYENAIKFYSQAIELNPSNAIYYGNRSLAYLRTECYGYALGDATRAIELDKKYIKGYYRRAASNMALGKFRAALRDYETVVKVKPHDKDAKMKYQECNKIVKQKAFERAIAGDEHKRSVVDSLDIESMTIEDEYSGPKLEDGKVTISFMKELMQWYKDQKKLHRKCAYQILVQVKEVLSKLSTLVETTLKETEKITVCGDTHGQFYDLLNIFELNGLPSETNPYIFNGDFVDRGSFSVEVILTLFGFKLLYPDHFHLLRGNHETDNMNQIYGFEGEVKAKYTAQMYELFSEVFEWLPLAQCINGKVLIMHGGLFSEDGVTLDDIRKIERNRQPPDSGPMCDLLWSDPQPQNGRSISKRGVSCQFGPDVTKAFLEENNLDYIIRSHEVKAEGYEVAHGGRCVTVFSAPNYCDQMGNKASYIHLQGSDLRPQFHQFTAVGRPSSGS
In words: inhibition of protein phosphatase 5 activity – biochemical, fluorescence, dose response (AID 2395).

Assay [11] has as its target T4, Apoptotic protease-activating factor 1 (Homo sapiens, UniProt O14727).
T4 sequence (O14727 whole entry): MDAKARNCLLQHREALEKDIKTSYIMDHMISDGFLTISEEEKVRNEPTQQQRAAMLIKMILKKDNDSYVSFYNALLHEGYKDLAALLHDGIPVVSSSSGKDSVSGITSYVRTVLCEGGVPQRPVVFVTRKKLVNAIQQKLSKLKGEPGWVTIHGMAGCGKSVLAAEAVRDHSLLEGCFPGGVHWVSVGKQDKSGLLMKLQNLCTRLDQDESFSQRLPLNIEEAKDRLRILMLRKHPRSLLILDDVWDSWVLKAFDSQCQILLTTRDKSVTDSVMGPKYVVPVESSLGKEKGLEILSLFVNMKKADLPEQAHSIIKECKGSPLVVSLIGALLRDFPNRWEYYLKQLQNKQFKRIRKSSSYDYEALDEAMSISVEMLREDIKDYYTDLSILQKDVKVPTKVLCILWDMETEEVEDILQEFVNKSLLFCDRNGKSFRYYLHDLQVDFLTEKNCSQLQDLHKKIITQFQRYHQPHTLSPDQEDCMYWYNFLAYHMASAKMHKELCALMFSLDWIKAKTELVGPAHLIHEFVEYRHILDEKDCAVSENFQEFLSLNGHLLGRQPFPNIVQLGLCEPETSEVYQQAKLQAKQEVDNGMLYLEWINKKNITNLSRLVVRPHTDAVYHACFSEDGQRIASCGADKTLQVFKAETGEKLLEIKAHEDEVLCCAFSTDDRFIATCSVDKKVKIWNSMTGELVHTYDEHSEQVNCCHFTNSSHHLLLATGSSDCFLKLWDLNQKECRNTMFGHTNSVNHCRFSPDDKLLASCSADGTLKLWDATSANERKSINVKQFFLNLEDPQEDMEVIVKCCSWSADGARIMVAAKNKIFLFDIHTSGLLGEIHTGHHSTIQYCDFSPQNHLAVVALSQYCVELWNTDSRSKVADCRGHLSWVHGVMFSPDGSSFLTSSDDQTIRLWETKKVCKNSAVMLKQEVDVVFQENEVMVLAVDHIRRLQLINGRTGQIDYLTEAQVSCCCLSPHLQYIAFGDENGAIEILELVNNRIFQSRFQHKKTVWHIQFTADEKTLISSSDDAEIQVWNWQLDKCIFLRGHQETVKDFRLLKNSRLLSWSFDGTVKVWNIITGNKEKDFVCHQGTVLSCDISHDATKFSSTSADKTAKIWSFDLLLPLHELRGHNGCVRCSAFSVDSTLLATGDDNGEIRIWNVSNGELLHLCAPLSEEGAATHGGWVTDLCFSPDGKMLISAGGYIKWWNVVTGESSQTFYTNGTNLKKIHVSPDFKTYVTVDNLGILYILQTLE
Format: functional.

Assay [12] deals with Ras and Rab interactor 1/Tyrosine-protein kinase ABL1 (Homo sapiens, UniProt P00519+Q13671). The format is functional.
Ras and Rab interactor 1/Tyrosine-protein kinase ABL1, sequence (P00519 whole entry): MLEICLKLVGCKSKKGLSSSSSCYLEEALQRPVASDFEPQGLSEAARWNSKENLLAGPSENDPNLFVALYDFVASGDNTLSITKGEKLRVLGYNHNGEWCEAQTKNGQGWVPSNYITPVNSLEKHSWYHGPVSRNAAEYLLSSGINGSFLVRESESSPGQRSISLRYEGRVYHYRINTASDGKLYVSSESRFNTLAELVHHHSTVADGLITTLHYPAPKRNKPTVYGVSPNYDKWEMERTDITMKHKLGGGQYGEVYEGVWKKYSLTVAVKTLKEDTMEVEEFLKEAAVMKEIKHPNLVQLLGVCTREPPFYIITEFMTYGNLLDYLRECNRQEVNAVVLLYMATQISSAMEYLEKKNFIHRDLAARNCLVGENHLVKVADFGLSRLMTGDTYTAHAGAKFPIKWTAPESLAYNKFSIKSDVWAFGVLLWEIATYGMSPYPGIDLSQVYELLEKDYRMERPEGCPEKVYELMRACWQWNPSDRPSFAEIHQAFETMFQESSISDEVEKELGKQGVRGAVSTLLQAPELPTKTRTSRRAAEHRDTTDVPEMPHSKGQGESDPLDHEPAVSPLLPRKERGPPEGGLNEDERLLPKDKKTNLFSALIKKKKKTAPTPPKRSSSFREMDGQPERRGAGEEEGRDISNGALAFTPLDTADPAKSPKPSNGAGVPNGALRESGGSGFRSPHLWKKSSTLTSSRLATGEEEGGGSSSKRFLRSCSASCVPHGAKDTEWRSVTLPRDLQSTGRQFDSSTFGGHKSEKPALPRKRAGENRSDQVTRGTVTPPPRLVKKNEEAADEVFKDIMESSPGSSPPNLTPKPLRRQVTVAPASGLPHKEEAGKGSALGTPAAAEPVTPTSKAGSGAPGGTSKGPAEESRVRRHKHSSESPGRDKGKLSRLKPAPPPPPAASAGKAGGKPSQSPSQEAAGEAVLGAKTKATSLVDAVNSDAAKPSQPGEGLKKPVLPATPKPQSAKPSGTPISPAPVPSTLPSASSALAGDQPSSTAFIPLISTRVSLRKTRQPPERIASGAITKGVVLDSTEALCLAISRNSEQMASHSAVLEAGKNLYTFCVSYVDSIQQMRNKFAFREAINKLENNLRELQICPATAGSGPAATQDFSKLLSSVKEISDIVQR
Ras and Rab interactor 1/Tyrosine-protein kinase ABL1, sequence (Q13671 whole entry): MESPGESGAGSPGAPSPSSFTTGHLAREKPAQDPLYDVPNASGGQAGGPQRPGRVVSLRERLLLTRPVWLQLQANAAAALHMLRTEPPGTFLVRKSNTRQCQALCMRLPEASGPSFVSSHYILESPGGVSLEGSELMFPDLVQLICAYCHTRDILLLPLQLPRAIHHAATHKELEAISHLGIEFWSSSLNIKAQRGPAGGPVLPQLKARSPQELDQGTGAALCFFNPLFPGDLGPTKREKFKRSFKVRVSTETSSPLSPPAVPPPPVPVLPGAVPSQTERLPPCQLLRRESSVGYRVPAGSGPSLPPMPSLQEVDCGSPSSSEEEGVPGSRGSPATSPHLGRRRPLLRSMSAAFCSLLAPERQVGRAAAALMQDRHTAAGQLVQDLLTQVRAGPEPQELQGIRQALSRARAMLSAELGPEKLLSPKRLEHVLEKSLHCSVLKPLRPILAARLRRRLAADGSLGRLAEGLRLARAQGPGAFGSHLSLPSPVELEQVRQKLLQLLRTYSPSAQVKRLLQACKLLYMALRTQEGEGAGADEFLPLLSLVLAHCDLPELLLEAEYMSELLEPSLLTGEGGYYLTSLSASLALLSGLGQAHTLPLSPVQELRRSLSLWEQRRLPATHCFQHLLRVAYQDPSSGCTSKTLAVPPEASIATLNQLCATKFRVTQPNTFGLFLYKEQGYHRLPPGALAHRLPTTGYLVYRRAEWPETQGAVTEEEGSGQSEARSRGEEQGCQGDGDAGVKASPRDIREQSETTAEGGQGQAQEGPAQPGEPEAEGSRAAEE
Assay [13] addresses T5, Sentrin-specific protease 8 (Homo sapiens, UniProt Q96LD8).
T5 sequence (Q96LD8 whole entry): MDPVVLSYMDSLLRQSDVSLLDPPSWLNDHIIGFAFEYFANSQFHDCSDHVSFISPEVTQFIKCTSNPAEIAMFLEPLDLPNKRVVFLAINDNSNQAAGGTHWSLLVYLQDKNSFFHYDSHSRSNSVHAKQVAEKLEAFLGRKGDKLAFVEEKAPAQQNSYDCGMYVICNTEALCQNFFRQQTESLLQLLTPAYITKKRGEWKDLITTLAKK
Format: functional.

Assay [14] concerns the target T5, Sentrin-specific protease 8. The format is functional. This is another data set of the same source.
For assay [15], the target named is T6, Histone-lysine N-methyltransferase NSD2 (Homo sapiens, UniProt O96028).
T6 sequence (O96028 whole entry): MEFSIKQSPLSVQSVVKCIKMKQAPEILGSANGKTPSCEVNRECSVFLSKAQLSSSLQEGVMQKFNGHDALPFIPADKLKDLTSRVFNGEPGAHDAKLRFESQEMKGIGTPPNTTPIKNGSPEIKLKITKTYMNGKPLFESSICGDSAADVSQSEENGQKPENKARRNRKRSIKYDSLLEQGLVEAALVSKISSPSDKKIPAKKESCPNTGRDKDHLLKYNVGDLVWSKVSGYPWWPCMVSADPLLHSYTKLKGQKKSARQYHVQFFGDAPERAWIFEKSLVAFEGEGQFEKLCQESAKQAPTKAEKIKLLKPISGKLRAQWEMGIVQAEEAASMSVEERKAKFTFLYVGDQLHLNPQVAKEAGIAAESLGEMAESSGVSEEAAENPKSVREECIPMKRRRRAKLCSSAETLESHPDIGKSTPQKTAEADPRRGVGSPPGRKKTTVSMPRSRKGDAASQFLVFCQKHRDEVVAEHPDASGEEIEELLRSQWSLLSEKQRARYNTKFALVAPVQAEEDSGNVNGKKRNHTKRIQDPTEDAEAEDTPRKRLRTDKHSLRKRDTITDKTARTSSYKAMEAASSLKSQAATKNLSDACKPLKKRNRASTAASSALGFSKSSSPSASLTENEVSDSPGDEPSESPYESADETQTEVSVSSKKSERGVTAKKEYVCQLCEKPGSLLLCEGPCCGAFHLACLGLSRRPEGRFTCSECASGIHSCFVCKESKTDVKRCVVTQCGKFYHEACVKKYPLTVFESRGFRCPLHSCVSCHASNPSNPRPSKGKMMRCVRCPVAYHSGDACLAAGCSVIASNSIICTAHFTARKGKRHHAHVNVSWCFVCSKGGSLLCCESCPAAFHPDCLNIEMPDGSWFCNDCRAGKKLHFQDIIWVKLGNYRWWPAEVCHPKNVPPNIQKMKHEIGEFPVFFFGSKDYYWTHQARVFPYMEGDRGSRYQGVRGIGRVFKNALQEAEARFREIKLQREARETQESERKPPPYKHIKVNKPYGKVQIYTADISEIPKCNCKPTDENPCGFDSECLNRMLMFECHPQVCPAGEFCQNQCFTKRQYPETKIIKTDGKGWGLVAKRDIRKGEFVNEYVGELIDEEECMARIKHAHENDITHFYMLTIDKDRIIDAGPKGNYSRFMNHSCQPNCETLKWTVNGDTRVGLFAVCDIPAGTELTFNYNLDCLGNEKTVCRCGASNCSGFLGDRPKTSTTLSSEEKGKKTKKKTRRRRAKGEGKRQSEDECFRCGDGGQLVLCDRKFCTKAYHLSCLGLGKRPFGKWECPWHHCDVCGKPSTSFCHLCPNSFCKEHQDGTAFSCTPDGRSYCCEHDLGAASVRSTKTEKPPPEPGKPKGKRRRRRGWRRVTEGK
Format: biochemical.

Assay [16] addresses Tyrosyl-DNA phosphodiesterase 2 (Homo sapiens, UniProt O95551). In words: potency against TDP2 phosphodiesterase activity – biochemical, epi absorbance, IC50, dose response (AID 743297).
Assay [17] addresses Ephrin type-A receptor 4 (Mus musculus, UniProt Q03137). In words: EphA4 ligand-binding antagonists – biochemical, colorimetric, mouse EphA4, primary screen (AID 689). Format: functional.
In assay [18] the target is Mothers against decapentaplegic homolog 3 (Homo sapiens, UniProt P84022). In words: inhibitors of SMAD-driven TGF-beta signaling – dose response (AID 715). The format is functional.
Assay [19] can be described thus: Luminescence Cell-Based Dose Response to Identify Activators of 5'UTR Stem-Loop Driven Prion Protein mRNA Translation in H4-C Neuroglioblastoma Cells. [Related pubchem assays: 1829 (Project Summary), 1814 (Primary HTS)]. The format is functional.
A short description of assay [20]: Luminescence Cell-Based Dose Confirmation HTS to Identify Activators of 5'UTR Stem-Loop Driven Alpha-Synuclein mRNA Translation in H4 Neuroglioblastoma Cells. [Related pubchem assays: 1829 (Project Summary), 1814 (Primary HTS)]. The format is functional.
A short description of assay [21]: Luminescence Cell-Based Dose Response HTS to Identify Activators of Luciferase Translation or Activity in H4 […] Cells. [Related pubchem assays: 1829 (Project Summary), 1814 (Primary HTS)]. The format is functional.
Assay [22] deals with H4. In words: Luminescence Cell-Based Dose Response HTS to Identify Activators of 5'UTR Stem-Loop Driven Prion Protein mRNA Translation in H4 Neuroglioblastoma Cells. [Related pubchem assays: 1829 (Project Summary), 1814 (Primary HTS)]. Particulars: Homo sapiens. Format: functional.
The nature of assay [23]: Luminescence Cell-Based Dose Response to Identify Activators of Luciferase Translation or Activity in H4-C Neuroglioblastoma Cells. [Related pubchem assays: 1829 (Project Summary), 1814 (Primary HTS)]. The format is functional.
Assay [24] is described as follows: Luminescence Cell-Based Dose Confirmation to Identify Activators of 5'UTR Stem-Loop Driven Alpha-Synuclein mRNA Translation in H4 Neuroglioblastoma Cells. [Related pubchem assays: 1829 (Project Summary), 1814 (Primary HTS)]. Format: functional.

T2 sequence (Q9UBE0 whole entry): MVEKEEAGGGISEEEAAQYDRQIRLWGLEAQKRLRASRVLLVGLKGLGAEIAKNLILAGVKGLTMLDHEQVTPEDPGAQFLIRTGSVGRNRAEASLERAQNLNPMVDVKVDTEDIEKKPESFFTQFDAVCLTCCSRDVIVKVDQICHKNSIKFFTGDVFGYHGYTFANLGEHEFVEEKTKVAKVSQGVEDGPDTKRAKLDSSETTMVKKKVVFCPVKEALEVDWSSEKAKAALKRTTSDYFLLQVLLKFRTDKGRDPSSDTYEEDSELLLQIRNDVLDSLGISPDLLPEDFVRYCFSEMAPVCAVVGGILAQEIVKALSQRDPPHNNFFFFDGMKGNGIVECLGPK
T2 sequence (Q9UBT2 whole entry): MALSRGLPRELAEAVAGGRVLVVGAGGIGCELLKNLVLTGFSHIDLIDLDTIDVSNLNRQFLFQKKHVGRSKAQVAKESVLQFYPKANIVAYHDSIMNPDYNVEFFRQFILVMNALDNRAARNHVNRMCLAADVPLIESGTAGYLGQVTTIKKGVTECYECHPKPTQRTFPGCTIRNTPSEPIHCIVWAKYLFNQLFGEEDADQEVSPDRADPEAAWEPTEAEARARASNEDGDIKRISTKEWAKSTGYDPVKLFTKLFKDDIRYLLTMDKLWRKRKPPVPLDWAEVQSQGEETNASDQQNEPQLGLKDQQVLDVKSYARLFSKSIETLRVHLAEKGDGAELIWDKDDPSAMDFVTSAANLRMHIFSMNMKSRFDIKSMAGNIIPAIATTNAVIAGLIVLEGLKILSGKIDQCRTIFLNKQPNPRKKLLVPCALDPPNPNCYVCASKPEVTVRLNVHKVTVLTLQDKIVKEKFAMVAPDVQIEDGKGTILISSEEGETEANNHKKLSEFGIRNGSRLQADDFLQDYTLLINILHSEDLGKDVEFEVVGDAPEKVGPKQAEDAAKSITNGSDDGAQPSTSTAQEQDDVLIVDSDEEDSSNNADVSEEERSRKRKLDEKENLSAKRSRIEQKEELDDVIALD
Ephrin type-A receptor 4, sequence (Q03137 whole entry): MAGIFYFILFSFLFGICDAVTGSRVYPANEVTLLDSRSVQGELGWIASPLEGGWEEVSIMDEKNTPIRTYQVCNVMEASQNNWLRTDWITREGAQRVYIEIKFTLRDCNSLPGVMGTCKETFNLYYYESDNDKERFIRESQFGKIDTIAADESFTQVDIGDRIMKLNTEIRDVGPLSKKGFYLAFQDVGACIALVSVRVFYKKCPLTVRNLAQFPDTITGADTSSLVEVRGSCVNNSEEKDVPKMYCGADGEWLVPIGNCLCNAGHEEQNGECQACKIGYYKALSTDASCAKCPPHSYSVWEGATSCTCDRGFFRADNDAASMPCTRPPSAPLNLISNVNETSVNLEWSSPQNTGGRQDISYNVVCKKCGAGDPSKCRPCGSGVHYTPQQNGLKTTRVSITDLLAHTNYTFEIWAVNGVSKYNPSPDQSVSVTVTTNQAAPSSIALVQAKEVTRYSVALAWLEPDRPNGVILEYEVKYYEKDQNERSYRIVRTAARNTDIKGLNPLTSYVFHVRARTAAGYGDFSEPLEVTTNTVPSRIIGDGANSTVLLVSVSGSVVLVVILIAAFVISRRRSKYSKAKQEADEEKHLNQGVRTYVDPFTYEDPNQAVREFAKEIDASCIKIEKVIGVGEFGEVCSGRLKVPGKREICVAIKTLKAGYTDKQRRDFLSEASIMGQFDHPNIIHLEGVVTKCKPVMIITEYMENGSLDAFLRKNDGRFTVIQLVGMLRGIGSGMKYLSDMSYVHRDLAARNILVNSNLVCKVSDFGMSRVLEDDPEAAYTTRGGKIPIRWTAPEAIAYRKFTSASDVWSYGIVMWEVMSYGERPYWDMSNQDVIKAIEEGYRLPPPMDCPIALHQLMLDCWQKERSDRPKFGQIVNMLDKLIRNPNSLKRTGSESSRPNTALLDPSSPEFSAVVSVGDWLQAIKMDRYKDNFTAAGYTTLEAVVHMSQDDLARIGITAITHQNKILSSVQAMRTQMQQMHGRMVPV
Sphingosine 1-phosphate receptor 2, sequence (O95136 whole entry): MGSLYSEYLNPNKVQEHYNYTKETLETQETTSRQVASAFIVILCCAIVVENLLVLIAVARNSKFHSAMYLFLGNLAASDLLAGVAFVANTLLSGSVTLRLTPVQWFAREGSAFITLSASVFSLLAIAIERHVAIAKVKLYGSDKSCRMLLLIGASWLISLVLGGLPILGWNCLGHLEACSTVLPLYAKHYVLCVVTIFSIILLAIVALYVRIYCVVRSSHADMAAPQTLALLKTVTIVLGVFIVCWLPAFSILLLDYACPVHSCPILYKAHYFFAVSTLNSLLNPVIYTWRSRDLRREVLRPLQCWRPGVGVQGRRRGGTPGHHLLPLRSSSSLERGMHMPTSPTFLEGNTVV
Tyrosyl-DNA phosphodiesterase 2, sequence (O95551 whole entry): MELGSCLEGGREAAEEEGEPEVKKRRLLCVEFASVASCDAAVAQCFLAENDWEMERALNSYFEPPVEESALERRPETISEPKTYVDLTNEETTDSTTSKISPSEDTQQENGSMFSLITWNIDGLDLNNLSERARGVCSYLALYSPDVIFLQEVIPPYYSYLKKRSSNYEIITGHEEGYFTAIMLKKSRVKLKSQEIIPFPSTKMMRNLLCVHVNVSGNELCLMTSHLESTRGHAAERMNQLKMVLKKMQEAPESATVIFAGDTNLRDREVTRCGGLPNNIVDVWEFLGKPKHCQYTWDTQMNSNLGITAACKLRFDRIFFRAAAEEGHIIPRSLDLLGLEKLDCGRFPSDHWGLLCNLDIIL

With `CC(=O)Nc1ccc(OCC(=O)c2cc(C)n(Cc3ccccc3)c2C)cc1`, the EC50 in assay [1] is > 30 µM (not active).
Turning to `COC(=O)NC(c1cccc(F)c1)[C@]1(C(C)=O)CCCC1=O` (some centres undefined), the AC50 in assay [2] was 2.51 µM (inconclusive).
As to `O=C(Cc1ccc([N+](=O)[O-])cc1)Nc1ccc(Oc2ccccc2)cc1`, in assay [3], the IC50 is on record as > 17 µM (not active).
Regarding `CCCN1CC=C2C(C#N)=C(N)C(C#N)(C#N)C(c3cccc(OC)c3OC)C2C1` (centres undefined), the IC50 in [4] and in assay [5] was > 100 µM (not active) in each case.
In the case of `CCOCCc1nnc(NC(=O)c2ccc(OC)c(OC)c2)s1`, the EC50 in assay [6] is 6.13 µM (active).
For the compound `CC(=O)C1=C(C)OC2(O)c3ccccc3C(=O)C12O` (centres undefined), the IC50 is > 67 µM (not active) in [7]; 3.09 µM (active) in [8]; 16.6 µM (active) in assay [9]; > 2.48 µM (active) in [10]; 8.19 µM (active) in assay [11]; > 73.4 µM (inactive) in assay [12]. The IC50 was 0.455 µM (active) in [13], 0.754 µM (active) in assay [14] and 7.52 µM (active) in assay [16]. In [15], the AC50 is 4.82 µM (active).
On to `O=C(CCN1C(=O)/C(=C/C=C/c2ccccc2)SC1=S)Nc1nccs1`, for which, in assay [17], the half-maximal inhibitory concentration (IC50) is > 100 µM (not active).
For `Cc1ccc(CCN2CC(C(=O)NCCCN3CCCCCC3)CC2=O)cc1` (centres undefined), in assay [18], the 50% inhibitory concentration (IC50) was 11.1 µM (active).
Take `O=c1c2ccccc2ncn1/N=C/c1ccccc1`: the 50% effective concentration (EC50) was 2.06 µM (active) in [19]; < 0.1 µM (active) in assay [20]; < 0.1 µM (active) in assay [21]; 0.525 µM (active) in assay [22]; 1.16 µM (active) in assay [23]; 0.53 µM (active) in assay [24].

For orientation: EC50 means the concentration at which the effect is half-maximal. As a reminder, the IC50 is the midpoint of a concentration-inhibition curve.
